Experimental data as given in US20210204580A1, “ORGANIC COMPOUNDS” (Givaudan SA, priority 2018, published 2021).

What was measured:
[1] = off-note masking in consumables containing non-animal derived protein (general statements)
[2] = Potato protein solution taste description; details: 3 wt % potato protein solution + 14 ppt ethyl cyclohexanoate; Sample A without it: earthy, musty, fishy, bitter
Procedure: An aqueous potato protein solution comprising 3 weight % potato protein (Solanic™ 200 by Avebe) was prepared (Sample A).

With `CCOC(=O)C1CCCCC1` [ethyl cyclohexanoate] the “effect on off-note attributes” value ([1]; higher concentrations, 50 ppt or more) was “provides a significant effect on several off-note attributes, but in addition confers some fruity notes”, the off-note masking result ([1]; up to 20 ppt (e.g. 0.5 ppt to about 15 ppt) added to a consumable comprising about 3 wt % non-animal derived protein) was “good results” and the masking of off-notes ([1]; use around its odor detection threshold, about 0.5 ppt (ng/L) to about 20 ppt (ng/L)) was “provides the masking of certain off-notes”. For the same molecule, the taste description [2] was “earthy, potato-like, but no fishy, bitter taste attributes have been noticed”.
